According to patent publication US7550497B2, “Phosphoramide derivatives” (Palau Pharma, S.A., priority 2002, dated 2009):

How the values were obtained:
[1] = tested on: carrageenan-induced paw edema; experiment: Rat carrageenan-induced paw edema assay; assay type: in vivo; conditions: male Sprague Dawley rats, 3 mg/kg i.v., 10 min before carrageenan, paw volume 1-4 h
Experimental: Test 1.—Rat Carrageenan-Induced Paw Edema Assay
Male Sprague Dawley rats (150-175 g) are used. The animals are fasted during 18 hours prior to the experiment and kept with water ad libitum, and are randomly distributed into the different groups of treatment. Inflammation is induced by injecting 0.1 mL of 1% λ-carrageenan solution (Sigma) to the animals' right hindpaw, and the inflammatory response (increase in paw volume) is measured with a plethysmometer (UGO BASILE). Paw volumes are measured just before the administration of test compounds and at 1, 2, 3 and 4 hours after the injection of carrageenan. The compounds are administered through the tail vein, dissolved in DMSO and saline (1 mL/Kg), 10 minutes before the injection of carrageenan. At the same time, 5 mL of water are administered by the oral route in order to facilitate hydration and subsequent inflammatory reaction. The percentages of inhibition of the different treatments tested are calculated by comparing the area under the curve obtained for the treated animals versus the one obtained for the control group. Said areas are obtained by integration from a graphical representation of paw volume versus time.
The results obtained with representative compounds of the present invention are shown in the following table, where the % of inhibition of inflammation at a dose of 3 mg/kg i.v. of test compound are reported.

[2] = tested on: carrageenan-induced hyperalgesia; experiment: Rat carrageenan-induced hyperalgesia test; assay type: in vivo; conditions: male Sprague Dawley rats, 3 mg/Kg intravenous, especially at 120 min after administration
Experimental: Test 3.—Rat Carrageenan-Induced Hyperalgesia Test
Male Sprague Dawley rats, randomly distributed into the different groups of treatment, are used. Inflammation is induced by injection of a carrageenan suspension (0.75 mg per paw in 0.05 mL of saline) into the animals' right hind foot pad. One hour 45 min later the test compounds are administered by intravenous route. Two hours after carrageenan injection, hyperalgesia is induced at different times in both hindpaws by using a heat source. At each time, the time of latency till the withdrawal of the paw from the heat source is determined for the control group (vehicle) and the treatment groups, and the result is expressed as the increase of the latency time of the inflammed paw of the treated group versus the control group.

Compound	% inhibition of inflammation (paw volume AUC vs control) [1]	analgesic activity (increase of latency time of the inflamed paw vs control) [2]
Diethyl N-[4-[4-chloro-5-(3-fluoro methoxyphenyl)imidazol-1-yl]phenylsulfonyl]phosphoramidate [Example 1]	20.7%	
CCOP(=O)([O-])NS(=O)(=O)c1ccc(-n2cnc(Cl)c2-c2ccc(OC)c(F)c2)cc1.[Na+] [Example 4, Ethyl N-[4-[4-chloro-5-(3-fluoro-4-methoxyphenyl)imidazol-1-*yl]phenylsulfonyl]phosphoramidate Sodium Salt]	23.3%	
COc1ccc(-c2c(Cl)ncn2-c2ccc(S(=O)(=O)NP(=O)(O)O)cc2)cc1F [Example 6, N-[4-[4-Chloro-5-(3-fluoro-4-methoxyphenyl)imidazol-1-yl]phenylsulfonyl]phosphoramidic Acid]	34.8%	significant analgesic activity
